Experimental data from patent US8846698B2, “Pyrrolo[2,3-d]pyrimidine tropomysin-related kinase inhibitors” (Pfizer Limited, priority 2011, dated 2014).

What follows are compounds tested against TRKA (Homo sapiens (Human), UniProt P04629) (assay: Isolated TRK enzyme assay (HTRF KinEASE-TK), TRKA). Conditions: read-out: Trka enzyme (IC50).
Chain of TRKA (P04629 441-796): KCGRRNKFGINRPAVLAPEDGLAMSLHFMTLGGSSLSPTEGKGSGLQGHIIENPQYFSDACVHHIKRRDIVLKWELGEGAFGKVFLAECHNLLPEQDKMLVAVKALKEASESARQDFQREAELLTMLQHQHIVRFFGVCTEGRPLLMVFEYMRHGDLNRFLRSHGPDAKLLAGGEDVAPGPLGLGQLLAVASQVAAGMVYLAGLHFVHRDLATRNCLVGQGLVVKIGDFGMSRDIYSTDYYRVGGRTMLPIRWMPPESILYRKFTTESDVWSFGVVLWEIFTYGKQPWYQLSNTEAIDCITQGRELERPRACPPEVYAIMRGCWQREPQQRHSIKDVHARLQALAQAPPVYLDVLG
Type: biochemical
Compound `Cc1[nH]c2ccccc2c1CC(=O)Nc1cncc(C(=O)c2cn(C(C)C)c3ncncc23)c1` [Example 116, N-{5-[(7-isopropyl-7H-pyrrolo[2,3-d]pyrimidin-5-yl)carbonyl]pyridin-3-yl}-2-(2-methyl-1H-indol-3-yl)acetamide] has an IC50 of 103 nM.
With `COc1ccc2[nH]cc(CC(=O)Nc3cncc(C(=O)c4cn(C(C)C)c5ncncc45)c3)c2c1` [Example 117, N-{5-[(7-isopropyl-7H-pyrrolo[2,3-d]pyrimidin-5-yl)carbonyl]pyridin-3-yl}-2-(5-methoxy-1H-indol-3-yl)acetamide] the IC50 was 68.4 nM.
With `CC(C)n1cc(C(=O)c2cncc(NC(=O)Cc3cccnc3)c2)c2cncnc21` [Example 118, N-{5-[(7-isopropyl-7H-pyrrolo[2,3-d]pyrimidin-5-yl)carbonyl]pyridin-3-yl}-2-pyridin-3-ylacetamide] the IC50 was 2550 nM.
In the case of `CC(C)n1cc(C(=O)c2cncc(NC(=O)Cn3nnc4cc(Cl)ccc43)c2)c2cncnc21` [Example 119, 2-(5-chloro-1H-benzotriazol-1-yl)-N-{5-[(7-isopropyl-7H-pyrrolo[2,3-d]pyrimidin-5-yl)carbonyl]pyridin-3-yl}acetamide], the IC50 is reported as 233 nM.
`CC(C)n1cc(C(=O)c2cncc(NC(=O)Cn3ccc(-c4cccs4)n3)c2)c2cncnc21` [Example 120, N-{5-[(7-isopropyl-7H-pyrrolo[2,3-d]pyrimidin-5-yl)carbonyl]pyridin-3-yl}-2-[3-(2-thienyl)-1H-pyrazol-1-yl]acetamide] showed an IC50 of 53 nM.
`Cc1ccn2cc(CC(=O)Nc3cncc(C(=O)c4cn(C(C)C)c5ncncc45)c3)nc2n1` [Example 121, N-{5-[(7-isopropyl-7H-pyrrolo[2,3-d]pyrimidin-5-yl)carbonyl]pyridin-3-yl}-2-(7-methylimidazo[1,2-a]pyrimidin-2-yl)acetamide] gave an IC50 of 5200 nM.
Compound `Cc1nc(C)c2ncn(CC(=O)Nc3cncc(C(=O)c4cn(C(C)C)c5ncncc45)c3)c2n1` [Example 122, 2-(2,6-dimethyl-9H-purin-9-yl)-N-{5-[(7-isopropyl-7H-pyrrolo[2,3-d]pyrimidin-5-yl)carbonyl]pyridin-3-yl}acetamide] has an IC50 of 5840 nM.
For `CC(C)n1cc(C(=O)c2cncc(NC(=O)Cn3ncc4ccc([N+](=O)[O-])cc43)c2)c2cncnc21` [Example 123, N-{5-[(7-isopropyl-7H-pyrrolo[2,3-d]pyrimidin-5-yl)carbonyl]pyridin-3-yl}-2-(6-nitro-1H-indazol-1-yl)acetamide], the IC50 was 143 nM.
`CC(C)n1cc(C(=O)c2cncc(NC(=O)Cc3nn(C)c4ccc(Cl)cc34)c2)c2cncnc21` [Example 124, 2-(5-chloro-1-methyl-1H-indazol-3-yl)-N-{5-[(7-isopropyl-7H-pyrrolo[2,3-d]pyrimidin-5-yl)carbonyl]pyridin-3-yl}acetamide] gave an IC50 of 244 nM.
Work on `Cc1[nH]c2ccc(F)cc2c1CC(=O)Nc1cncc(C(=O)c2cn(C(C)C)c3ncncc23)c1` [Example 125, 2-(5-fluoro-2-methyl-1H-indol-3-yl)-N-{5-[(7-isopropyl-7H-pyrrolo[2,3-d]pyrimidin-5-yl)carbonyl]pyridin-3-yl}acetamide] yielded an IC50 of 148 nM.
`CC(C)n1cc(C(=O)c2cncc(NC(=O)Cc3cn4cc(Cl)ccc4n3)c2)c2cncnc21` [Example 126, 2-(6-chloroimidazo[1,2-a]pyridin-2-yl)-N-{5-[(7-isopropyl-7H-pyrrolo[2,3-d]pyrimidin-5-yl)carbonyl]pyridin-3-yl}acetamide] gave an IC50 of 95.7 nM.
Work on `Cc1nc2ccccc2n1CC(=O)Nc1cncc(C(=O)c2cn(C(C)C)c3ncncc23)c1` [Example 127, N-{5-[(7-isopropyl-7H-pyrrolo[2,3-d]pyrimidin-5-yl)carbonyl]pyridin-3-yl}-2-(2-methyl-1H-benzimidazol-1-yl)acetamide] yielded an IC50 of 1330 nM.
With `CC(C)n1cc(C(=O)c2cncc(NC(=O)Cc3cn4ccccc4n3)c2)c2cncnc21` [Example 128, 2-imidazo[1,2-a]pyridin-2-yl-N-{5-[(7-isopropyl-7H-pyrrolo[2,3-d]pyrimidin-5-yl)carbonyl]pyridin-3-yl}acetamide] the IC50 was 206 nM.
Compound `COc1ccc2c(ccn2CC(=O)Nc2cncc(C(=O)c3cn(C(C)C)c4ncncc34)c2)n1` [Example 129, N-{5-[(7-isopropyl-7H-pyrrolo[2,3-d]pyrimidin-5-yl)carbonyl]pyridin-3-yl}-2-(5-methoxy-1H-pyrrolo[3,2-b]pyridin-1-yl)acetamide] has an IC50 of 3860 nM.
Compound `Cc1ccnn1CC(=O)Nc1cncc(C(=O)c2cn(C(C)C)c3ncncc23)c1` [Example 130, N-{5-[(7-isopropyl-7H-pyrrolo[2,3-d]pyrimidin-5-yl)carbonyl]pyridin-3-yl}-2-(5-methyl-1H-pyrazol-1-yl)acetamide] has an IC50 of 284 nM.
Work on `Cc1cccc2ncn(CC(=O)Nc3cncc(C(=O)c4cn(C(C)C)c5ncncc45)c3)c12` [Example 131, N-{5-[(7-isopropyl-7H-pyrrolo[2,3-d]pyrimidin-5-yl)carbonyl]pyridin-3-yl}-2-(7-methyl-1H-benzimidazol-1-yl)acetamide] yielded an IC50 of 831 nM.
`CC(C)n1cc(C(=O)c2cncc(NC(=O)Cc3c[nH]c4ccccc34)c2)c2cncnc21` [Example 132, 2-(1H-indol-3-yl)-N-{5-[(7-isopropyl-7H-pyrrolo[2,3-d]pyrimidin-5-yl)carbonyl]pyridin-3-yl}acetamide] gave an IC50 of 131 nM.
With `CC(C)n1cc(C(=O)c2cncc(NC(=O)Cn3cnc4ccccc43)c2)c2cncnc21` [Example 133, 2-(1H-benzimidazol-1-yl)-N-{5-[(7-isopropyl-7H-pyrrolo[2,3-d]pyrimidin-5-yl)carbonyl]pyridin-3-yl}acetamide] the IC50 was 681 nM.
With `Cc1cc(CC(=O)Nc2cncc(C(=O)c3cn(C(C)C)c4ncncc34)c2)[nH]n1` [Example 134, N-{5-[(7-isopropyl-7H-pyrrolo[2,3-d]pyrimidin-5-yl)carbonyl]pyridin-3-yl}-2-(3-methyl-1H-pyrazol-5-yl)acetamide] the IC50 was 330 nM.
In the case of `CC(C)n1cc(C(=O)c2cncc(NC(=O)Cn3nnc4ccccc43)c2)c2cncnc21` [Example 135, 2-(1H-benzotriazol-1-yl)-N-{5-[(7-isopropyl-7H-pyrrolo[2,3-d]pyrimidin-5-yl)carbonyl]pyridin-3-yl}acetamide], the IC50 is reported as 312 nM.
In the case of `CC(C)n1cc(C(=O)c2cncc(NC(=O)Cc3cn(C)c4ccccc34)c2)c2cncnc21` [Example 136, N-{5-[(7-isopropyl-7H-pyrrolo[2,3-d]pyrimidin-5-yl)carbonyl]pyridin-3-yl}-2-(1-methyl-1H-indol-3-yl)acetamide], the IC50 is reported as 334 nM.
`CC(C)n1cc(C(=O)c2cncc(NC(=O)Cc3cc(-c4ccccc4)c[nH]3)c2)c2cncnc21` [Example 137, N-{5-[(7-isopropyl-7H-pyrrolo[2,3-d]pyrimidin-5-yl)carbonyl]pyridin-3-yl}-2-(4-phenyl-1H-pyrrol-2-yl)acetamide] was tested, and the IC50 was 496 nM.
Compound `CCc1nc2cccnc2n1CC(=O)Nc1cncc(C(=O)c2cn(C(C)C)c3ncncc23)c1` [Example 138, 2-(2-ethyl-3H-imidazo[4,5-b]pyridin-3-yl)-N-{5-[(7-isopropyl-7H-pyrrolo[2,3-d]pyrimidin-5-yl)carbonyl]pyridin-3-yl}acetamide] has an IC50 of 8310 nM.
`CC(C)n1cc(C(=O)c2cncc(NC(=O)Cc3c[nH]c4ccc(Cl)cc34)c2)c2cncnc21` [Example 139, 2-(5-chloro-1H-indol-3-yl)-N-{5-[(7-isopropyl-7H-pyrrolo[2,3-d]pyrimidin-5-yl)carbonyl]pyridin-3-yl}acetamide] showed an IC50 of 65.7 nM.
Compound `CC(C)n1cc(C(=O)c2cncc(NC(=O)Cc3ccn(-c4ccccc4)c3)c2)c2cncnc21` [Example 140, N-{5-[(7-isopropyl-7H-pyrrolo[2,3-d]pyrimidin-5-yl)carbonyl]pyridin-3-yl}-2-(1-phenyl-1H-pyrrol-3-yl)acetamide] has an IC50 of 219 nM.
Work on `Cc1ccc2[nH]cc(CC(=O)Nc3cncc(C(=O)c4cn(C(C)C)c5ncncc45)c3)c2c1` [Example 141, N-{5-[(7-isopropyl-7H-pyrrolo[2,3-d]pyrimidin-5-yl)carbonyl]pyridin-3-yl}-2-(5-methyl-1H-indol-3-yl)acetamide] yielded an IC50 of 59.5 nM.
With `CCc1nc2ccccc2n1CC(=O)Nc1cncc(C(=O)c2cn(C(C)C)c3ncncc23)c1` [Example 142, 2-(2-ethyl-1H-benzimidazol-1-yl)-N-{5-[(7-isopropyl-7H-pyrrolo[2,3-d]pyrimidin-5-yl)carbonyl]pyridin-3-yl}acetamide] the IC50 was 1380 nM.
`CC(C)n1cc(C(=O)c2cncc(NC(=O)Cc3cn4cccnc4n3)c2)c2cncnc21` [Example 143, 2-imidazo[1,2-a]pyrimidin-2-yl-N-{5-[(7-isopropyl-7H-pyrrolo[2,3-d]pyrimidin-5-yl)carbonyl]pyridin-3-yl}acetamide] showed an IC50 of 4730 nM.
In the case of `CC(C)n1cc(C(=O)c2cncc(NC(=O)Cc3n[nH]c4ccccc34)c2)c2cncnc21` [Example 144, 2-(1H-indazol-3-yl)-N-{5-[(7-isopropyl-7H-pyrrolo[2,3-d]pyrimidin-5-yl)carbonyl]pyridin-3-yl}acetamide], the IC50 is reported as 71.5 nM.
With `COc1cc(F)cc2ccn(CC(=O)Nc3cncc(C(=O)c4cn(C(C)C)c5ncncc45)c3)c12` [Example 145, 2-(5-fluoro-7-methoxy-1H-indol-1-yl)-N-{5-[(7-isopropyl-7H-pyrrolo[2,3-d]pyrimidin-5-yl)carbonyl]pyridin-3-yl}acetamide] the IC50 was 37.4 nM.
Work on `CC(C)n1cc(C(=O)c2cncc(NC(=O)Cc3cn(Cc4ccccc4)nn3)c2)c2cncnc21` [Example 146, 2-(1-benzyl-1H-1,2,3-triazol-4-yl)-N-{5-[(7-isopropyl-7H-pyrrolo[2,3-d]pyrimidin-5-yl)carbonyl]pyridin-3-yl}acetamide] yielded an IC50 of 573 nM.
With `CC(C)n1cc(C(=O)c2cncc(NC(=O)Cc3nn(C)c4cc(Cl)ccc34)c2)c2cncnc21` [Example 147, 2-(6-chloro-1-methyl-1H-indazol-3-yl)-N-{5-[(7-isopropyl-7H-pyrrolo[2,3-d]pyrimidin-5-yl)carbonyl]pyridin-3-yl}acetamide] the IC50 was 76.4 nM.
With `CC(C)n1cc(C(=O)c2cncc(NC(=O)Cc3c[nH]c4c(Cl)cccc34)c2)c2cncnc21` [Example 148, 2-(7-chloro-1H-indol-3-yl)-N-{5-[(7-isopropyl-7H-pyrrolo[2,3-d]pyrimidin-5-yl)carbonyl]pyridin-3-yl}acetamide] the IC50 was 93.4 nM.
